Test results published in US11840686B2, “Modulation of prekallikrein (PKK) expression” (Ionis Pharmaceuticals, Inc., priority 2013, dated 2023).
Strand notation (5' to 3'): a small letter for the sugar, then the base; units joined by * are phosphorothioate-linked, units joined directly phosphodiester-linked; [ ] holds rarer units or linkages, { } end groups; capitals alone tell only the bases. e = 2'-O-(2-methoxyethyl) (MOE); [5mC] = 5-methylcytosine; d = 2'-deoxy (DNA)

Key:
human PKK mRNA [1] = experiment: Dose-dependent antisense inhibition of human PKK in HepaRG cells, 0.19-5.00 uM (Example 5); type: cell-based
Procedure, shortened: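 HepaRG cells (20,000/well) were electroporated with antisense oligonucleotide at 0.19, 0.56, 1.67 and 5.00 μM and treated for about 16 hours. PKK mRNA was quantified by qRT-PCR with primer probe set RTS3454, normalised to RIBOGREEN total RNA, and IC50 was derived per oligonucleotide.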

human PKK mRNA [2] = experiment: Antisense inhibition of human PKK mRNA in HepaRG cells, 5,000 nM (Example 2); type: cell-based
Procedure, shortened: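 HepaRG cells, 20,000 per well, were electroporated with 5,000 nM MOE gapmer (phosphorothioate, 5-methylcytosine) and incubated about 24 hours. PKK mRNA was quantified by qRT-PCR with primer probe set RTS3454, normalized to RIBOGREEN total RNA, and expressed as percent inhibition versus untreated controls.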

[3] = HepaRG cells, electroporation, approximately 16 hours, Table 41
[4] = 4 point dose response, HepaRG cells, Table 41
[5] = Table 34, HepaRG, electroporation, ~16 h
[6] = Table 34, PKK mRNA, HepaRG, electroporation, ~16 h
[7] = HepaRG cells, electroporation, approximately 16 hours, Table 38
[8] = HepaRG cells, electroporation, approximately 16 hours, Table 40
[9] = 4 point dose response, HepaRG cells, Table 40
[10] = HepaRG cells, electroporation with 5,000 nM antisense oligonucleotide, approximately 24 hours, PKK mRNA by RT-PCR (RTS3454), relative to untreated control cells, Table 5 experiment
[11] = HepaRG cells, electroporation, approximately 16 hours, Table 37

For “547423 (e[5mC]*e[5mC]*e[5mC]*eT*eT*dG*dT*dG*dT*d[5mC]*d[5mC]*d[5mC]*dA*dT*dA*e[5mC]*eG*e[5mC]*eA*eA; antisense) [compound 547423]”, the “percent inhibition of PKK at 0.19 0μM” value (human PKK mRNA [1]; [3]) was 78%, the “percent inhibition of PKK at 0.56 0μM” value (human PKK mRNA [1]; [3]) was 92% and the IC50 (human PKK mRNA [1]; [4]) was less than 200 nM. The “percent inhibition of PKK at 0.19 μM” value (human PKK mRNA [1]; [5]) was 37%, the “percent inhibition of PKK at 0.56 μM” value (human PKK mRNA [1]; [5]) was 50% and the “percent inhibition of PKK at 1.67 μM” value (human PKK mRNA [1]; [5]) was 92%. The “percent inhibition of PKK at 5.00 μM” value (human PKK mRNA [1]; [5]) was 90%, the IC50 (human PKK mRNA [1]; [6]) was 400 nM and the “% inhibition” value (human PKK mRNA [2]; Table 8, HepaRG cells, electroporation with 5,000 nM antisense oligonucleotide, approx. 24 hours, PKK mRNA by RT-PCR (RTS3454), relative to untreated control cells) was 95%.

In the case of “546429 (eG*e[5mC]*e[5mC]*e[5mC]*eA*d[5mC]*d[5mC]*dA*dA*d[5mC]*dA*dA*dT*d[5mC]*dT*e[5mC]*eT*eG*eG*eT; antisense) [compound 546429]”, the “percent inhibition of PKK at 0.19 μM” value (human PKK mRNA [1]; [7]) is reported as 6%, the “percent inhibition of PKK at 0.56 μM” value (human PKK mRNA [1]; [7]) is reported as 10% and the “percent inhibition of PKK at 1.67 μM” value (human PKK mRNA [1]; [7]) is reported as 44%. For the same substance, the “percent inhibition of PKK at 5.00 μM” value (human PKK mRNA [1]; [7]) was 69%, the IC50 (human PKK mRNA [1]; 4 point dose response, HepaRG cells, Table 38) was 2300 nM and the “% inhibition” value (human PKK mRNA [2]; HepaRG cells, electroporation, 5,000 nM antisense oligonucleotide, approx. 24 hours, primer probe set RTS3454, relative to untreated control cells, Table 12) was 84%.

“547780 (antisense e[5mC]*e[5mC]*e[5mC]*e[5mC]*eT*d[5mC]*dT*dT*dA*dA*dA*dT*dA*dG*d[5mC]*eA*e[5mC]*eA*eT*eG) [compound 547780]” was tested, and the “percent inhibition of PKK at 0.19 μM” value (human PKK mRNA [1]; [8]) was 0%, the “percent inhibition of PKK at 0.56 μM” value (human PKK mRNA [1]; [8]) was 10% and the “percent inhibition of PKK at 1.67 μM” value (human PKK mRNA [1]; [8]) was 36%. The “percent inhibition of PKK at 5.00 μM” value (human PKK mRNA [1]; [8]) was 55%, the IC50 (human PKK mRNA [1]; [9]) was 3900 nM and the “% inhibition” value (human PKK mRNA [2]; HepaRG cells, 5,000 nM antisense oligonucleotide, 5-10-5 gapmers, Table 17) was 67%.

In the case of “546825 (eG*eT*eA*eT*e[5mC]*dA*d[5mC]*dT*dG*dT*dA*d[5mC]*dT*dA*dG*eT*eT*eT*e[5mC]*e[5mC]; antisense) [compound 546825]”, the “percent inhibition of PKK at 5.00 μM” value (human PKK mRNA [1]; [3]) is reported as 99%, the “percent inhibition of PKK at 0.19 0μM” value (human PKK mRNA [1]; [3]) is reported as 38% and the “percent inhibition of PKK at 0.56 0μM” value (human PKK mRNA [1]; [3]) is reported as 82%. For the same substance, the IC50 (human PKK mRNA [1]; [4]) was 200 nM, the “percent inhibition of PKK at 0.19 μM” value (human PKK mRNA [1]; [5]) was 46% and the “percent inhibition of PKK at 0.56 μM” value (human PKK mRNA [1]; [5]) was 73%. The “percent inhibition of PKK at 1.67 μM” value (human PKK mRNA [1]; [5]) was 86%, the “percent inhibition of PKK at 5.00 μM” value (human PKK mRNA [1]; [5]) was 88% and the IC50 (human PKK mRNA [1]; [6]) was 200 nM. For the same substance, the “% inhibition” value (human PKK mRNA [2]; Table 13, human PKK mRNA in HepaRG cells, 5-10-5 gapmers) was 96%.

For “547277 (antisense e[5mC]*eA*e[5mC]*eA*eA*dT*dT*dG*d[5mC]*dT*dT*d[5mC]*dT*dT*dG*eG*eA*eG*eG*eT) [compound 547277]”, the “percent inhibition of PKK at 0.19 μM” value (human PKK mRNA [1]; [8]) was 2%, the “percent inhibition of PKK at 0.56 μM” value (human PKK mRNA [1]; [8]) was 32% and the “percent inhibition of PKK at 1.67 μM” value (human PKK mRNA [1]; [8]) was 34%. The “percent inhibition of PKK at 5.00 μM” value (human PKK mRNA [1]; [8]) was 62%, the IC50 (human PKK mRNA [1]; [9]) was 2800 nM and the “% inhibition” value (human PKK mRNA [2]; [10]) was 75%.

For “546855 (eA*eT*eA*eA*e[5mC]*dA*dG*dT*dA*dT*d[5mC]*dA*d[5mC]*dT*dG*eT*e[5mC]*e[5mC]*eT*eA; antisense) [compound 546855]”, the “percent inhibition of PKK at 0.19 μM” value (human PKK mRNA [1]; [11]) was 18%, the “percent inhibition of PKK at 0.56 μM” value (human PKK mRNA [1]; [11]) was 7% and the “percent inhibition of PKK at 1.67 μM” value (human PKK mRNA [1]; [11]) was 30%. For the same substance, the “percent inhibition of PKK at 5.00 μM” value (human PKK mRNA [1]; [11]) was 82%, the IC50 (human PKK mRNA [1]; 4 point dose response, HepaRG cells, Table 37) was 2200 nM and the “% inhibition” value (human PKK mRNA [2]; human PKK mRNA in HepaRG cells, 5-10-5 gapmers, Table 14) was 87%.

In the case of “546158 (e[5mC]*eT*eT*eG*eG*dG*dT*dG*dG*dA*dA*dT*dG*dT*dG*e[5mC]*eA*e[5mC]*e[5mC]*eT; antisense) [compound 546158]”, the “percent inhibition of PKK at 0.19 μM” value (human PKK mRNA [1]; [5]) is reported as 5%, the “percent inhibition of PKK at 0.56 μM” value (human PKK mRNA [1]; [5]) is reported as 45% and the “percent inhibition of PKK at 1.67 μM” value (human PKK mRNA [1]; [5]) is reported as 79%. The “percent inhibition of PKK at 5.00 μM” value (human PKK mRNA [1]; [5]) was 83%, the IC50 (human PKK mRNA [1]; [6]) was 700 nM and the “% inhibition” value (human PKK mRNA [2]; [10]) was 95%.
